The test concerns the target H+/K+ ATPase (Oryctolagus cuniculus (Rabbit), UniProt P27112). As to the kind of experiment: Determination of compounds' inhibition of H+/K+ ATPase enzyme activity. Particulars: H+/K+ ATPase extracted from rabbit stomach; malachite green detection, 500 μM ATP, pH 6.5. It counts as biochemical. The text has this: Determination of Compounds' Inhibition of H^+/K^+ ATPase Enzyme Activity
The following experiment is used to determine the inhibitory effect of the compound of the present invention on the H+/K+ATPase enzyme activity.
• Plate reader: SpectraMax M5(MD) • Malachite Green (Sigma Aldrich, 213020-25G) • Ammonium molybdate (Sigma Aldrich, 277908-20G) • ATP (Sigma Aldrich, A1852-1VL). 2. Buffer Preparation
Enzyme working solution: titrating the enzyme, diluting the enzyme with buffer 1, and during the reaction, taking 5 μl of the diluted solution into 50 μl reaction system.
ATP solution: 100 mM ATP was diluted to 5 mM with no K+buffer, and 5 μl of the diluted solution was added to the 50 μl reaction system, that is, the final concentration of ATP was 500 μM.
MLG color development liquid: 0.12% MLG, 7.5% ammonium molybdate, 11% Tween-20 was mixed as 100:25:2, and adding 15 μl of the mixture into each well during detection.
Buffer 1: 50 mM Tris-HCl pH 6.5, 5 mM magnesium chloride (magnesium chloride), 10 μM valinomycin (valinomycin).
Buffer 2: 50 mM Tris-HCl pH 6.5, 5 mM magnesium chloride (magnesium chloride), 10 μM valinomycin (valinomycin), 20 mM KCl.
Homogenization buffer: 10 mmol/L Tris-HCl, pH 6.8, 0.25M sucrose (sucrose), 1 mmol/LEDTA
7.5% Ficoll layering solution: homogenization buffer+7.5% (W/W) (Ficoll 400).
3.1. H^+/K^+ ATPase Enzyme Extraction
(1) The stomach tissue of the rabbit was separated, and the blood was washed with tap water, food residue.
(2) The fundus portion was thoroughly washed with pre-cooled NaCl solution to remove surface mucus.
(3) The stripped mucosa was filled into a sample bag or a 50 ml centrifuge tube, and quickly freezing in a liquid nitrogen tank.
(4) The tissue was removed, minced with surgical scissors, and a pre-cooled homogenization buffer (4 ml/g tissue) was added and homogenized in a tissue homogenizer for 2 to 10 minutes.
(5) After homogenization, if there were larger tissue particles, they could be removed by centrifugation (600 g, 10 min), and then the supernatant was transferred to a clean centrifuge tube. After centrifugation at 20000 g for 30 minutes, then the supernatant was transferred to a clean centrifuge tube at 100000 g for 90 minutes and the precipitate was collected.
(6) Resuspending the precipitate with homogenization buffer, blowing uniformly, adding 7.5% Ficoll layering solution at equal ratio, centrifuging at 100000 g for 90 minutes, and collecting the precipitate.
(7) Resuspending the precipitate with homogenization buffer, blowing uniformly, and the protein concentration was measured by Bradford. Freezing in tubes at −80° C. for later use.
3.2. H^+/K^+ ATPase Activity Experiment
(1) Adding 35 μl of reaction buffer to each experimental well, and then added 35 μl of buffer 1.
(2) Adding 5 μl buffer 1 containing 10% DMSO to the whole enzyme and buffer well.
(3) Adding 5 μl of 10× compound working solution to the compound well and mixing well.
(4) Adding 5 μl of buffer 1 to the buffer well.
(5) Adding 5 μl of 10× enzyme working solution to the remaining wells, mixing and incubating at 37° C. for 30 minutes
(6) Adding 5 μl of 10× ATP working solution to all experimental wells, and incubating at 37° C. for 20 min.
(7) Adding 15 μl MLG chromogenic solution to all experimental wells, and uniformly mixing and incubating at room temperature for 5-30 min.
(8) The reading number of 620 nm was detected by an M5 instrument. […]
Chain of H+/K+ ATPase (P27112 whole entry): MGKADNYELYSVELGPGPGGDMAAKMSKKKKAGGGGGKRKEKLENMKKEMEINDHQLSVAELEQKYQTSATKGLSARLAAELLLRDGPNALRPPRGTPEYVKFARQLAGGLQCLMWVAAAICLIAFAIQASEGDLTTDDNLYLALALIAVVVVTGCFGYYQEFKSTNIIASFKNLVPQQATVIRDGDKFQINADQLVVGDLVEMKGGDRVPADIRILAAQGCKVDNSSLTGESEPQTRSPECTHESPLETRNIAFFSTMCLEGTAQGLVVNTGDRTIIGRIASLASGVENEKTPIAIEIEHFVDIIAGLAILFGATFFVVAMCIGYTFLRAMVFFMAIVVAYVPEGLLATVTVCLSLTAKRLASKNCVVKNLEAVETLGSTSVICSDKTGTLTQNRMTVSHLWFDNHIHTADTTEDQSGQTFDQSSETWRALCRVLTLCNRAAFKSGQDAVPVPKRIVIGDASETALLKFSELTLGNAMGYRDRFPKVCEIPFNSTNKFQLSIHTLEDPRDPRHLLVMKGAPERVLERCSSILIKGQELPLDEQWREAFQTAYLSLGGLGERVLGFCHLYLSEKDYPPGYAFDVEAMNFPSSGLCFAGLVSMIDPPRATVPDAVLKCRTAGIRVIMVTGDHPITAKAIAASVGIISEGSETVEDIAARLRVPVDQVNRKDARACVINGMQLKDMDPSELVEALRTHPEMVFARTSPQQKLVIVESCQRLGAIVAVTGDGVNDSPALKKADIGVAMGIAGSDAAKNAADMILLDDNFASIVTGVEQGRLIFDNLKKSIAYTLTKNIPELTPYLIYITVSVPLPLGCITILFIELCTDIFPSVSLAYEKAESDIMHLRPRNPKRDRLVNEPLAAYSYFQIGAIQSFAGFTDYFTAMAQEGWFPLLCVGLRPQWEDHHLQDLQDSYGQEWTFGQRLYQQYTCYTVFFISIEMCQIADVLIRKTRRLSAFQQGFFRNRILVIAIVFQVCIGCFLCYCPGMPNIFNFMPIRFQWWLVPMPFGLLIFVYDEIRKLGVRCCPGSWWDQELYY
Chain of H+/K+ ATPase (P18597 whole entry partner): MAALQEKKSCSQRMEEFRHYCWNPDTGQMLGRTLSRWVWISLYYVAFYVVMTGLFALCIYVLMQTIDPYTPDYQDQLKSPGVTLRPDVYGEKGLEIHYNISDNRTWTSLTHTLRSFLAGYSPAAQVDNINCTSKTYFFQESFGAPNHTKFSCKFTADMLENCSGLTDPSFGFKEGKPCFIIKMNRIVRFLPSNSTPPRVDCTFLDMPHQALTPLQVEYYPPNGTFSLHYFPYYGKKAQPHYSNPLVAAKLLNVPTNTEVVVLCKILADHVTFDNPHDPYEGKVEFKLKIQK
In the case of `CN1CCN(c2cccc(Cn3nc4c(c3-c3ccccc3F)CN(C)C4)c2)CC1` [Example 4, 3-(2-fluorophenyl)-5-methyl-2-(3-(4-methylpiperazin-1-yl)benzyl)-2,4,5,6-tetrahydro pyrrolo [3,4-c] pyrazole], the IC50 – broadly, the concentration needed to halve the response being measured – turned out to be 0.58 µM.
As for `CN1Cc2nn(Cc3cccc(N4CCCCC4)c3)c(-c3ccccc3F)c2C1` [Example 2, 3-(2-fluorophenyl)-5-methyl-2-(3-(piperidin-1-yl)benzyl)-2,4,5,6-tetrahydropyrrolo[3,4-c]pyrazole], 0.431 µM corresponded to half-maximal inhibition (IC50). The IC50 values of the last two compounds are within 1.5-fold of each other.
The value for `CN1Cc2nn(Cc3cccc(N4CCOCC4)c3)c(-c3ccccc3F)c2C1` [Example 1, 4-(3-((3-(2-fluorophenyl)-5-methyl-5,6-dihydropyrrolo [3,4-c]pyrazole-2(4H)-yl)methyl)phenyl) morpholine] was 0.411 µM; that for `CN1Cc2nn(Cc3cccc(N4CCC(N5CCCCC5)CC4)c3)c(-c3ccccc3F)c2C1` [Example 5, 2-(3-([1,4′-Bipiperidine]-1′-yl)benzyl)-3-(2-fluorophenyl)-5-methyl-2,4,5,6-tetrahydropyrrolo[3,4-c]pyrazole] was 2.58 µM.
The value for `CN1Cc2nn(Cc3cccc(N4CCCC4)c3)c(-c3ccccc3F)c2C1` [Example 3, 3-(2-fluorophenyl)-5-methyl-2-(3-(pyrrolidin-1-yl)benzyl)-2,4,5,6-tetrahydropyrrolo[3,4-c]pyrazole] was 1.86 µM.

(Values after patent US12391696B2, “Pyrrolopyrazole derivatives, preparation method thereof and application thereof in medicine” (SHANGHAI MEDICILON INC., priority 2019, dated 2025).)
